# Measurements from patent publication US11091429B2, “Organic compounds” (Givaudan SA, priority 2012, dated 2021).
# Key:
# Tasting in soy sauce = assay: Tasting in soy sauce
# Description: (§1) The following formulations were prepared and tasted by trained panelists.
# (§2) Salt level pure product between 5-40%
# (§3) Salt level in application 0.3-1.0%
# (§4) Samples were prepared and evaluated by expert tasters. Tasters were asked to describe the samples focusing on authentic taste, mouthfeel, fullness, salty-ness, salivation, umami, sweetness, juiciness, richness, long lastingness and fattiness.
# Test on Kikkoman Soy Sauce Low Salt
# Base is Kikkoman soy sauce
# (§5) Samples were prepared and evaluated by expert tasters. Tasters were asked to describe the samples focusing on authentic taste, mouthfeel, fullness, salivation, salty-ness, umami, sweetness, juiciness, richness, long lastingness and fattiness.
# Tasting in fish sauce = assay: Tasting in fish sauce
# Description: as §1, §2, §3, §5
# Tasting in butter = settings: 1 ppm in Blueband butter 82% fat 1.5% salt
# Description: as §1
# Blueband 82% fat 1.5% salt
# [1] = Tasting in low fat salad dressing; settings: 0.5 ppm in low fat salad dressing (13.6% fat)
# Description: as §1
# low fat salad dressing (13.6% Fat, 8%, carbohydrates (of which 5.3% sugar))
# as §4
# Calve Salad Dressing Low Fat (13.6% Fat):
# Base is Calve salad dressing (market product)
# as §5
# Low fat salad dressing (13.6% Fat)
# [2] = Tasting in beef bouillon base; settings: 0.5 PPM in beef bouillon base 1.0% salt, 0.5% fat
# Description: as §1
# Beef Bouillon base 1.0% salt, 0.5% fat
# Tasting of baked pizza = settings: 0.5 PPM in the crust and 0.5 PPM in the tomato sauce, baked at 200 degrees Celsius
# Description: as §1
# Differentiator high temperature 100-250 degrees Celsius in hot air baking process
# C18:2 gaba @ 0.5 PPM in the crust and @ 0.5 PPM in the tomato sauce
# The pizza was topped off with cheese and baked in a hot air oven @ 200 degrees Celsius
# [3] = Tasting on air expanded base; settings: 3% fat, cheese seasoning
# Description: as §1
# An air expanded base (Rice, wheat, Tapioca, potato, salt, sugar, modified starch), containing 3% fat and flavored with cheese seasoning containing salt, MSG, dairy, organic acids, sugars and flavor. The following compounds were added to the base at the indicated levels and the tasting results are reported: […]
# [4] = Tasting in UHT sweetened banana flavoured milk; settings: banana flavour 0.04%
# Description: UHT Sweetened Banana Flavoured Milk, With Different Fat Levels
# In a UHT milk with 0% and 3% fat sweetened with 4% sucrose by weight, flavoured with proprietary banana flavour dosed at 0.04%. C18:2 gaba was added at 0.25 ppm, 0.5 ppm and 1 ppm.
# (§6) Samples were evaluated by expert tasters. Tasters were asked to describe the samples focusing on authentic taste, mouthfeel, fullness, salivation, sweetness, juiciness, richness, long lastingness and fattiness.
# Tasting in soy milk = settings: 2 ppm, soy milk (1.8% fat), 5% sucrose, milk flavour 0.1%
# Description: In a soy milk (1.8% fat) sweetened with 5% sucrose by weight, flavoured with a proprietary milk flavour ata dosage of 0.1%, C18:2-gaba was added at 2 ppm
# as §6
# Test in 3 in 1 coffee = settings: 1 ppm, 3-in-1 coffee beverage, sucrose 13.2%, creamer (2.1% fat)
# Description: In a 3 in 1 Coffee beverage from Nestle (market product) sweetened with sucrose 13.2% and containing creamer (2.1% fat) C18:2-gaba was added.
# as §6
# Base is 3-in-1 Coffee beverage (market product) sweetened with sucrose and containing creamer with fat
# [5] = Tasting in mango juice drink, 1% clear mango juice; settings: 8% sucrose, 0.1% citric acid, mango flavour 0.05%
# Description: Comparison in a Mango Juice Drink
# Base is 8% sucrose, 0.1% citric acid, 1% clear mango juice, and a proprietary mango flavour at 0.05%.
# (§7) Samples were evaluated by expert tasters. Tasters were asked to describe the samples focusing on authentic taste, mouthfeel, fullness, salty-ness, salivation, umami, sweetness, juiciness, richness, long lastingness and fattiness.
# Base is water, 8% sucrose, 0.1% citric acid, 1% clear mango juice, proprietary mango flavour @ 0.05%
# Samples were evaluated by expert tasters. Tasters were asked to describe the samples focusing on authentic taste, mouthfeel, fullness, salivation, salty-ness, umami, sweetness, juiciness, richness, long lastingness and fattiness.
# Base is water, 8% sucrose, 0.1% citric acid, 1% clear mango juice, proprietary mango flavour @0.05%
# Samples were evaluated by expert tasters. Tasters were asked to describe the samples focusing on authentic taste, mouthfeel, fullness, salty-ness, salivation, umami, sweetness, juiciness, richness, long lastingness and fattiness
# Base is 8% sucrose, 0.1% citric acid, 1% clear mango juice, proprietary mango flavour @ 0.05%
# Samples were evaluated by expert tasters. Tasters were asked to describe the samples focusing on authentic taste, mouth feel, fullness, salivation, salty-ness, umami, sweetness, juiciness, richness, long lastingness and fattiness
# Base is water, 8% sucrose, 0.1% citric acid, 1% clear mango juice, proprietary mango flavour @ 0.05%.
# Test in a Mango Juice Drink
# [6] = Test on Baileys cream liqueur; settings: 1 ppm, 17% alcohol
# Description: Test on Baileys Cream Liqueur:
# In Baileys cream liqueur (Market Product) containing 17% alcohol, carbohydrates 25% and 13% fat C18:2-gaba was added at 1 ppm.
# Samples were evaluated by expert tasters. Tasters were asked to describe the samples focusing on authentic taste, alcohol impact, mouthfeel, fullness, salivation, sweetness, bitterness, richness, long lastingness and fattiness.
# Base is Baileys cream liqueur
# as §7
# Base: Baileys cream liqueur (containing 17% alcohol, carbohydrates 25% and 13% fat)
# Test on Heineken beer = settings: 0.5 ppm, 4% alcohol
# Description: In Heineken beer (Market Product) containing 4% alcohol C18:2-gaba was added at 0.5 ppm
# Samples were evaluated by expert tasters. Tasters were asked to describe the samples focusing on authentic taste, alcohol impact, malt taste, hop taste, mouthfeel, fullness, salivation, sweetness, bitterness, richness, long lastingness and fattiness.
# as §7
# Base: Heineken beer (containing 4% alcohol)
# [7] = Test in pear flavoured drink; settings: 1 ppm; water, 7% sugar (8% elsewhere in the source), 0.1% citric acid, pear flavour 0.025%
# Test on mouthwash = settings: 1 ppm, Paradontax alcohol free mouthwash
# Description: as §7
# Base: Paradontax alcohol free mouthwash.
smiles,measurement,setting,value
CCCCC/C=C\C/C=C\CCCCCCCC(=O)NCCCC(=O)O [C18:2-gaba],tasting result,Tasting in soy sauce; 0.5 ppm in 1% diluted salt reduced kikoman soy sauce (9% salt),"stronger, more umami, long lasting, richer"
same,tasting result,Tasting in soy sauce; 0.5 ppm in Kikkoman soy sauce low salt,"much more salty, sweet and long lasting"
same,tasting result,Tasting in soy sauce; 0.5 ppm in pure salt reduced kikoman soy sauce (9% salt),"strong in body and mouthfeel, and more salty"
same,tasting result,Tasting in fish sauce; 0.5 ppm in 1% diluted fish sauce (0.27% salt),"stronger in umami, longer lasting and richer"
same,tasting result,Tasting in fish sauce; 0.5 ppm in pure fish sauce (27% salt),"strong in body and mouthfeel, more salty, richer with more rounded fish notes"
same,tasting result,Tasting in butter,"more authentic butter taste, with more mouthfeel"
same,tasting result,[1],"much fuller, creamy, rich, less acidic"
same,tasting result,[1]; listed as C18:2 gaba,better mouthfeel that was impressively creamy
same,tasting result,[2],"Strong, Salty, Umami, mouthfeel"
same,tasting result,Tasting of baked pizza,"The crust was less dry, more succulent and the tomato was richer, sweeter and the total lingering aftertaste was very rich and pleasant"
same,tasting result,[3]; 0.5 ppm on air expanded base,"Increased dairy, cheese"
same,tasting result,[3]; 1 ppm on air expanded base,"Fatty full, cheesy, cheese crust, long lasting, cover base"
same,tasting result,"[4]; 0.25 ppm, UHT milk 0% fat","fuller banana, more authentic, more sweet"
same,tasting result,"[4]; 0.25 ppm, UHT milk 3% fat","more authentic, less estery and more round"
same,tasting result,"[4]; 0.5 ppm, UHT milk 0% fat","fuller banana, authentic, creamy and sweet, more mouthfeel"
same,tasting result,"[4]; 0.5 ppm, UHT milk 3% fat",creamy banana
same,tasting result,"[4]; 1 ppm, UHT milk 0% fat","creamy, creamy banana, sweet aftertaste, more mouthfeel and very longlasting"
same,tasting result,"[4]; 1 ppm, UHT milk 3% fat",creamy long lasting and more authentic and more impact
same,tasting result,Tasting in soy milk,"clean, creamy, good masking of the soy bean taste, creamy and milky"
same,tasting result,Test in 3 in 1 coffee,"very nice mouthfeel effect, creamy as if coffee creamer is added, more sweet"
same,tasting result,[5]; 1 ppm,"fatty skin-like, very juicy, authentic mango, much more mouthfeel, long lasting mango taste, mouthfeel is close to the full juice product"
same,tasting result,[5]; 2 ppm,"fatty skin like, juicy, authentic"
same,tasting result,[6],"strongly enhanced alcohol effect, more cocoa, very creamy and long lasting aftertaste"
same,tasting result,Test on Heineken beer,"more hoppy, more bitter, more malt and stronger alcohol impact"
same,tasting result,Test on Heineken beer; listed as C18:2 gaba,"more happy, more bitter, more malt and stronger alcohol impact"
same,tasting result,[7],"long lasting, juicy and fatty skin like very authentic, like eating the fruit instead of drinking a drink"
same,tasting result,Test on mouthwash,"much less bitter, very sweet, smooth, less burning, round spicy, more minty and more cooling"
